The compounds below were run on HEK Blue™ TNFα reporter cells (assay: TNF-α Induced HEK Blue Cellular Assay). Conditions: TNF-α stimulated HEK Blue TNFα reporter cells, 24 hrs, secreted alkaline phosphatase (QUANTI-Blue, 620 nm).
Format: cell-based
Method: Test articles were diluted in DMSO and serially diluted into 384 well assay plate (Corning 3765), at final concentrations ranging from […] to 0.5 nM. HEK Blue™ TNFα reporter cells were added at a final density of 10,000 cell per well in assay media [DMEM (Gibco, cat #21063-029), 10% fetal bovine serum (ExcelBio, cat #FND500), 1% Penicillin-Streptomycin (Solarbio, cat #P1400-100]. TNF-α (R&D 210-TA-020/CF) was then added to the assay plate at a final concentration of […]. This plate was then incubated for 24 hrs at 37° C. and 5% CO2. Secreted alkaline phosphatase expression was then measured using QUANTI-Blue™(Invivogen), according to manufacturer instructions and read on an Envision microplate reader at 620 nm.
Inhibition data for test compound over a range of concentration was plotted as percentage inhibition of the test compound (100%=maximum inhibition). IC50 values were determined after correcting for background [(sample read-mean of low control)/(mean of high control-mean of low control)] whereby the low control is DMSO without stimulation and high control is DMSO with stimulation. The IC50 is defined as the concentration of test compound which produces […] and was quantified using the 4 parameter logistic equation to fit the data.

N[C@H]1COc2cc(-c3ccc4nc5n(c4c3)[C@@H]3C[C@H]5N(C4CC4)C(=O)c4cccc(OC(F)F)c43)ccc21 [Example 14, (1R,11R)-5-[(3R)-3-amino-2,3-dihydro-1-benzofuran-6-yl]-12-cyclopropyl-18-(difluoromethoxy)-2,9,12-triazapentacyclo[9.8.1.0^{2,10}.0^{3,8}.0^{14,19}]icosa-3(8),4,6,9,14(19),15,17-heptaen-13-one] and CN1C(=O)c2cccc(OC(F)F)c2[C@H]2C[C@@H]1c1nc3ccc(-c4ccc5c(c4)CC[C@@H]5N)cc3n12 [Example 2, (1R,11R)-5-[(1S)-1-amino-2,3-dihydro-1H-inden-5-yl]-18-(difluoromethoxy)-12-methyl-2,9,12-triazapentacyclo[9.8.1.0^{2,10}.0^{3,8}.0^{14,19}]icosa-3(8),4,6,9,14(19),15,17-heptaen-13-one] cannot be ordered by IC50: < 100 nM for the first, < 100 nM for the second.

First: [2H]C([2H])([2H])N1C(=O)c2cccc(OC(F)F)c2[C@H]2C[C@@H]1c1nc3ccc(-c4cnc5c(c4)OCC[C@@]5(C)O)cc3n12 (single isomer, unassigned) [Example 35]
Second: [2H]C([2H])([2H])N1C(=O)c2cccc(OC(F)F)c2[C@H]2C[C@@H]1c1nc3ccc(-c4cnc5c(c4)COC[C@]5(O)CC)cc3n12 (single isomer, unassigned) [Example 41]
The IC50 of the first is lower: < 100 nM for the first, 10000 to 30000 nM for the second.

N[C@H]1CCc2cc(-c3ccc4nc5n(c4c3)[C@@H]3C[C@H]5NC(=O)c4cccc(OC(F)F)c43)cc(F)c21 [Example 13, (1R,11R)-5-[(1S)-1-amino-7-fluoro-2,3-dihydro-1H-inden-5-yl]-18-(difluoromethoxy)-2,9,12-triazapentacyclo[9.8.1.0^{2,10}.0^{3,8}.0^{14,19}]icosa-3(8),4,6,9,14(19),15,17-heptaen-13-one] and CN1C(=O)c2cccc(OC(F)F)c2[C@H]2C[C@@H]1c1nc3ccc(-c4cnc5c(c4)CC[C@H]5N)cc3n12 (single isomer, unassigned) [Example 17] cannot be ordered by IC50: < 100 nM for the first, < 100 nM for the second.

First: [2H]C([2H])([2H])N1C(=O)c2cccc(OC(F)F)c2[C@H]2C[C@@H]1c1nc3ccc(-c4cnc5c(c4)OC[C@]5(C)O)nc3n12 (single isomer, unassigned) [Example 64]
Second: [2H]C([2H])([2H])N1C(=O)c2cccc(OC(F)F)c2[C@H]2C[C@@H]1c1nc3ccc(-c4cnc5c(c4)OC[C@@]5(C)N)nc3n12 (single isomer, unassigned) [Example 59]
The IC50 of the first is lower: 100 to 1000 nM for the first, 10000 to 30000 nM for the second. The first is the more potent here.

CN1C(=O)c2cccc(OC(F)F)c2[C@H]2C[C@@H]1c1nc3ccc(-c4ccc5c(c4)OCCC5(C)N)cc3n12 (stereo partly drawn) [Example 24, (1R,11R)-5-(4-amino-4-methyl-2,3-dihydro-1-benzopyran-7-yl)-18-(difluoromethoxy)-12-methyl-2,9,12-triazapentacyclo[9.8.1.0^{2,10}.0^{3,8}.0^{14,19}]icosa-3(8),4,6,9,14(19),15,17-heptaen-13-one] and CN1C(=O)c2cccc(OC(F)F)c2[C@H]2C[C@@H]1c1nc3ccc(-c4cnc5c(c4)OC[C@@]5(C)N)cc3n12 (single isomer, unassigned) [Example 58] cannot be ordered by IC50: < 100 nM for the first, < 100 nM for the second.

[2H]C([2H])([2H])N1C(=O)c2cccc(OC(F)F)c2[C@H]2C[C@@H]1c1nc3cc(F)c(-c4cnc5c(c4)CC[C@]5(C)N)cc3n12 (single isomer, unassigned) [Example 25] and CN1C(=O)c2cccc(OC(F)F)c2[C@H]2C[C@@H]1c1nc3cc(F)c(-c4cnc5c(c4)CCC5(C)N)cc3n12 (stereo partly drawn) [Example 27, (1R,11R)-5-{7-amino-7-methyl-5H,6H-cyclopenta[b]pyridin-3-yl}-18-(difluoromethoxy)-6-fluoro-12-methyl-2,9,12-triazapentacyclo[9.8.1.0^{2,10}.0^{3,8}.0^{14,19}]icosa-3(8),4,6,9,14(19),15,17-heptaen-13-one; formic acid] cannot be ordered by IC50: < 100 nM for the first, < 100 nM for the second.

[2H]C([2H])([2H])N1C(=O)c2cccc(OC(F)F)c2[C@H]2C[C@@H]1c1nc3ccc(-c4cnc5c(c4)NC(=O)[C@@]5(C)O)cc3n12 (single isomer, unassigned) [Example 43] and CN1C(=O)c2cccc(OC(F)F)c2[C@H]2C[C@@H]1c1nc3ccc(-c4cnc5c(c4)OC[C@]5(C)N)cc3n12 (single isomer, unassigned) [Example 57] cannot be ordered by IC50: < 100 nM for the first, < 100 nM for the second.

Compared with [2H]C([2H])([2H])N1C(=O)c2cccc(OC(F)F)c2[C@H]2C[C@@H]1c1nc3ccc(-c4cnc5c(c4)OC[C@@]5(C)N)c(F)c3n12 (single isomer, unassigned) [Example 65], [2H]C([2H])([2H])N1C(=O)c2cccc(OC(F)F)c2[C@H]2C[C@@H]1c1nc3ccc(-c4cnc5c(c4)CC[C@@]5(C)O)nc3n12 (single isomer, unassigned) [Example 67] is higher in IC50: < 100 nM for the first, 10000 to 30000 nM for the second.
